Results from patent US9580432B2, “Fused pyrimidine compound or salt thereof” (TAIHO PHARMACEUTICAL CO., LTD., priority 2013, dated 2017).

What was measured:
[1] = molecular target: purified recombinant human BTK protein (Homo sapiens (Human), UniProt Q06187); test: Measurement of BTK inhibitory activity (in vitro); format: biochemical; conditions: FL-PEPTIDE 2 substrate 1 μM, ATP 45 μM, 40 minutes at 25° C.
From the text: With regard to the setting of the conditions for a method for measuring the inhibitory activity of a compound against BTK kinase activity in vitro, it is described in the consumable reagent supplies price list for LabChip (registered trademark) series of PerkinElmer, Inc. that FL-PEPTIDE 2 corresponds to a substrate peptide for the measurement of BTK kinase activity. Therefore, FL-PEPTIDE 2 was used as a substrate. The purified recombinant human BTK protein used in the test was purchased from Carna Biosciences, Inc.
With regard to the measurement of the inhibitory activity of the compounds, firstly, the compounds of the present invention were diluted stepwise with dimethyl sulfoxide (DMSO). Subsequently, BTK protein, a substrate peptide (final concentration was 1 μM), magnesium chloride (final concentration was 10 mM), ATP (final concentration was 45 μM), and a DMSO solution of the compounds of the present invention (final concentration of DMSO was 5%) were added to a buffer solution for kinase reaction (20 mM HEPES (pH 7.5), 2 mM dithiotheitol, 0.01% Triton X-100), and after the solution was incubated for 40 minutes at 25° C., a kinase reaction was carried out. The reaction was terminated by adding EDTA thereto in order to obtain a final concentration of 30 mM. Finally, a substrate peptide that was not phosphorylated (S) and a phosphorylated peptide (P) were separated and detected by microchannel capillary electrophoresis using a LabChip EZ Reader II (PerkinElmer, Inc.).

A431 cells / TMD8 cells = test: Proliferation inhibitory activity against cell lines expressing BTK and EGFR (in vitro), comparison of selectivity; format: cell-based, human; conditions: ratio from GI50 (nM), 3 days culture, CELLTITER GLO
From the text: TMD8 cells, which are of a diffuse large B-cell lymphoma cell line expressing BTK, were suspended in RPMI1640 medium (manufactured by Life Technologies Corp.) containing 10% fetal bovine serum. A431 cells, which are of an EGFR-overexpressing, highly activated human epidermoid carcinoma cell line, were suspended in DMEM, high glucose medium (manufactured by Life Technologies Corp.) containing 10% fetal bovine serum. The cell suspensions were inoculated into each well of 384-well flat-bottomed microplates, and the cells were cultured for 1 day at 37° C. in an incubator containing 5% carbon dioxide gas. […] A DMSO solution of the test compounds was diluted with the medium used in the suspension of the each cells, and this was added to each of the wells of the cell culture plates such that the final concentration of DMSO would be 0.2%. The cells were further cultured for 3 days at 37° C. in an incubator containing 5% carbon dioxide gas. […] Proliferation inhibition ratio (%)=(C−T)/(C−C0)×100
T: Luminescence intensity of a well in which the test compound was added
C: Luminescence intensity of a well in which the test compound was not added
C0: Luminescence intensity of a well measured before the addition of the test compound
When a comparison is made between the cell proliferation inhibitory activity against A431 cells that depends on the EGFR proliferation signaling and the cell proliferation inhibitory activity against TMD8 cells that depends on the BTK proliferation signaling, the influence of the respective kinases at a cellular level is able to be evaluated. That is, when the “A431 cell proliferation inhibition ratio/TMD8 cell proliferation inhibition ratio” is calculated, it is contemplated that as the value of the ratio is larger, the selectivity to BTK over EGFR in the cells is higher.

[2] = system: purified recombinant human EGFR protein / BTK; test: BTK inhibition selectivity compared with EGFR kinase inhibitory activity (in vitro); format: biochemical; conditions: EGFR assay ATP 1.5 μM
Procedure: 1) Measurement of BTK Inhibitory Activity
2) Measurement of EGFR Inhibitory Activity
Therefore, a biotinated peptide (biotin-[…]) was produced by referring to the amino acid sequence of the peptide. The purified recombinant human EGFR protein used in the test was purchased from Carna Biosciences, Inc.
With regard to the measurement of the inhibitory activity of the compounds, firstly, the compounds of the present invention were diluted stepwise with dimethyl sulfoxide (DMSO). […] The reaction was terminated by adding EDTA thereto in order to obtain a final concentration of 24 mM. Subsequently, a detection liquid containing Eu-labeled anti-phosphorylated tyrosine antibody PT66 (PerkinElmer, Inc.) and […] APC-SA (PerkinElmer, Inc.) was added thereto, and the system was left to stand for 2 hours or longer at room temperature.
3) BTK Inhibition Selectivity

Chain of purified recombinant human BTK protein (Q06187 whole entry): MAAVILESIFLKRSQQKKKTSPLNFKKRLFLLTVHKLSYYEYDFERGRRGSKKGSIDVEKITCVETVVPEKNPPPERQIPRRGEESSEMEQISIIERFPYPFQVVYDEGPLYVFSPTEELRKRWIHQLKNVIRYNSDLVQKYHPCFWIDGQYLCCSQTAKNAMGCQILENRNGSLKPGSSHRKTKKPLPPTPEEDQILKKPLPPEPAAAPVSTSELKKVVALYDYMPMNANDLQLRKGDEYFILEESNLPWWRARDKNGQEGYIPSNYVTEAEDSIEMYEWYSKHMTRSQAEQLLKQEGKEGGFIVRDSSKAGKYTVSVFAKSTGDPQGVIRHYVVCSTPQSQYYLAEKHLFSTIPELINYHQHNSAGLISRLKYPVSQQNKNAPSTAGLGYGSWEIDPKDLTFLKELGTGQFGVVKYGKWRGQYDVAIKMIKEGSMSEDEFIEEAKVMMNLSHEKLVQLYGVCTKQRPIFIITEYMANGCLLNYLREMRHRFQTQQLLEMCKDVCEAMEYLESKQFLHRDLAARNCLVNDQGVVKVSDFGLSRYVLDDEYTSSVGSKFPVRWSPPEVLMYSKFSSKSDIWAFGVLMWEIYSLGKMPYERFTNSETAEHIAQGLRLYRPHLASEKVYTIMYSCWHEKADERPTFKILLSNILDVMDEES

SMILES | IC50 [1] [nM] | A431 cell proliferation inhibition ratio/TMD8 cell proliferation inhibitio ratio (A431 cells / TMD8 cells) | EGFR inhibitory activity IC50 value (nM)/BTK inhibitory activity IC50 value (nM) [2]
C=CC(=O)N1CCC[C@@H](n2nc(C(=O)Nc3nc4cc(Cl)ccc4o3)c3c(N)ncnc32)C1 [Example 1, (R)-1-(1-acryloylpiperidin-3-yl)-4-amino-N-(5-chlorobenzo[d]oxazol-2-yl)-1H-pyrazolo[3,4-d]pyrimidine-3-carboxamide] | 0.415 | 1062.9 | 
C=CC(=O)N1CCC[C@@H](n2nc(C(=O)Nc3nc4cc(Br)ccc4o3)c3c(N)ncnc32)C1 [Example 2, (R)-1-(1-acryloylpiperidin-3-yl)-4-amino-N-(5-bromobenzo[d]oxazol-2-yl)-1H-pyrazolo[3,4-d]pyrimidine-3-carboxamide] | 0.464 | >1033.6 | 
C=C(C)C(=O)N1CCC[C@@H](n2nc(C(=O)Nc3nc4cc(Cl)ccc4o3)c3c(N)ncnc32)C1 [Example 4, (R)-4-amino-N-(5-chlorobenzo[d]oxazol-2-yl)-1-(1-methacryloylpiperidin-3-yl)-1H-pyrazolo[3,4-d]pyrimidine-3-carboxamide] | 0.888 |  | 929.2
C/C=C/C(=O)N1CCC[C@@H](n2nc(C(=O)Nc3nc4cc(Cl)ccc4o3)c3c(N)ncnc32)C1 [Example 5, (R,E)-4-amino-N-(5-chlorobenzo[d]oxazol-2-yl)-1-(1-(but-2-enoyl)piperidin-3-yl)-1H-pyrazolo[3,4-d]pyrimidine-3-carboxamide] | 1.25 |  | 241.0
C=CC(=O)N1CCC[C@@H](n2nc(C(=O)Nc3nc4c(C)cccc4o3)c3c(N)ncnc32)C1 [Example 10, (R)-1-(1-acryloylpiperidin-3-yl)-4-amino-N-(4-methylbenzo[d]oxazol-2-yl)-1H-pyrazolo[3,4-d]pyrimidine-3-carboxamide] | 2.38 | 5860.5 | 
C=CC(=O)N1CCC[C@@H](n2nc(C(=O)Nc3nc4cc(C)c(C)cc4o3)c3c(N)ncnc32)C1 [Example 23, (R)-1-(1-acryloylpiperidin-3-yl)-4-amino-N-(5,6-dimethylbenzo[d]oxazol-2-yl)-1H-pyrazolo[3,4-d]pyrimidine-3-carboxamide] | 1.58 | >10680 | 
C=CC(=O)N1CC[C@@H](n2nc(C(=O)Nc3nc4cc(Cl)ccc4o3)c3c(N)ncnc32)C1 [Example 24, (R)-1-(1-acryloylpyrrolidin-3-yl)-4-amino-N-(5-chlorobenzo[d]oxazol-2-yl)-1H-pyrazolo[3,4-d]pyrimidine-3-carboxamide] | 0.591 | 3266.5 | 
CC(C)=CC(=O)N1CC[C@@H](n2nc(C(=O)Nc3nc4cc(Cl)ccc4o3)c3c(N)ncnc32)C1 [Example 26, (R,E)-4-amino-N-(5-chlorobenzo[d]oxazol-2-yl)-1-(1-(3-methylbut-2-enoyl)pyrrolidin-3-yl)-1H-pyrazolo[3,4-d]pyrimidine-3-carboxamide] | 2.79 |  | 642.8
C=CC(=O)N1CC[C@@H](n2nc(C(=O)Nc3nc4cc(-c5cccs5)ccc4o3)c3c(N)ncnc32)C1 [Example 28, (R)-1-(1-acryloylpyrrolidin-3-yl)-4-amino-N-(5-(thiophen-2-yl)benzo[d]oxazol-2-yl)-1H-pyrazolo[3,4-d]pyrimidine-3-carboxamide] | 0.559 | 2040.3 | 
C=CC(=O)N1CC[C@@H](n2nc(C(=O)Nc3nc4cc(C)ccc4o3)c3c(N)ncnc32)C1 [Example 29, (R)-1-(1-acryloylpyrrolidin-3-yl)-4-amino-N-(5-methylbenzo[d]oxazol-2-yl)-1H-pyrazolo[3,4-d]pyrimidine-3-carboxamide] | 0.485 | 1243.4 | 
Nc1ncnc2c1c(C(=O)Nc1nc3cc(Cl)ccc3o1)nn2[C@@H]1CCN(C(=O)/C=C/CN2CCCC2)C1 [Example 36, (R,E)-4-amino-N-(5-chlorobenzo[d]oxazol-2-yl)-1-(1-(4-(pyrrolidin-1-yl)but-2-enoyl)pyrrolidin-3-yl)-1H-pyrazolo[3,4-d]pyrimidine-3-carboxamide] | 0.867 |  | 59.8
Nc1ncnc2c1c(C(=O)Nc1nc3cc(Cl)ccc3o1)nn2[C@@H]1CCN(C(=O)/C=C/CN2CCCCC2)C1 [Example 37, (R,E)-4-amino-N-(5-chlorobenzo[d]oxazol-2-yl)-1-(1-(4-(piperidin-1-yl)but-2-enoyl)pyrrolidin-3-yl)-1H-pyrazolo[3,4-d]pyrimidine-3-carboxamide] | 0.786 |  | 70.5
C=CC(=O)N1CC(n2cc(C(=O)Nc3nc4cc(Cl)ccc4o3)c3c(N)ncnc32)C1 [Example 46, 7-(1-acryloylazetidin-3-yl)-4-amino-N-(5-chlorobenzo[d]oxazol-2-yl)-7H-pyrrolo[2,3-d]pyrimidine-5-carboxamide] | 3.27 | 7662.2 | 
C=CC(=O)N1CC[C@@H](n2cc(C(=O)Nc3nc4cc(Cl)ccc4o3)c3c(N)ncnc32)C1 [Example 48, (R)-7-(1-acryloylpyrrolidin-3-yl)-4-amino-N-(5-chlorobenzo[d]oxazol-2-yl)-7H-pyrrolo[2,3-d]pyrimidine-5-carboxamide] | 0.836 | 2496.4 | 
CN(C)C/C=C/C(=O)N1CC[C@@H](n2cc(C(=O)Nc3nc4cc(-c5ccccc5)ccc4o3)c3c(N)ncnc32)C1 [Example 56, (R,E)-4-amino-N-(5-phenylbenzo[d]oxazol-2-yl)-7-(1-(4-(dimethylamino)but-2-enoyl)pyrrolidin-3-yl) 7H-pyrrolo[2,3-d]pyrimidine-5-carboxamide] | 1.34 |  | 17.6
CCN(C)C/C=C/C(=O)N1CC[C@@H](n2cc(C(=O)Nc3nc4cc(-c5ccccc5)ccc4o3)c3c(N)ncnc32)C1 [Example 57, (R,E)-4-amino-N-(5-phenylbenzo[d]oxazol-2-yl)-7-(1-(4-(ethyl(methyl)amino)but-2-enoyl)pyrrolidin-3-yl) 7H-pyrrolo[2,3-d]pyrimidine-5-carboxamide] | 1.51 |  | 19.3
C=CC(=O)N1CCC(Cn2nc(C(=O)Nc3nc4ccccc4o3)c3c(N)ncnc32)C1 (stereo not drawn) [Example 66, 1-((1-acryloylpyrrolidin-3-yl)methyl)-4-amino-N-(benzo[d]oxazol-2-yl)-1H-pyrazolo[3,4-d]pyrimidine-3-carboxamide] | 17 | >1205.7 | 
C=CC(=O)N1CC(n2nc(C(=O)Nc3nc4cc(F)ccc4o3)c3c(N)ncnc32)C1 [Example 79, 1-(1-acryloylazetidin-3-yl)-4-amino-N-(5-fluorobenzo[d]oxazol-2-yl)-1H-pyrazolo[3,4-d]pyrimidine-3-carboxamide] |  |  | 20.6
C=CC(=O)NCCCn1nc(C(=O)Nc2nc3ccccc3o2)c2c(N)ncnc21 [Example 85, 1-(3-acrylamidopropyl)-4-amino-N-(benzo[d]oxazol-2-yl)-1H-pyrazolo[3,4-d]pyrimidine-3-carboxamide] |  |  | 11.0
